Reference: US20080051466A1, “Isoalpha acid based protein kinase modulation cancer treatment” (Metaproteomics, LLC, priority 2006, published 2008)

Assays:
Experiment in all cases: KinaseProfiler Assay
Assay type in all cases: biochemical
Abl(T315I) = Abl(T315I) (Homo sapiens, UniProt P00519, T315I); settings: read-out: Abl(T315I), % of Control
DAPK1 = DAPK1 (Homo sapiens, UniProt P53355); settings: read-out: DAPK1, % of Control
DAPK2 = DAPK2 (Homo sapiens, UniProt Q9UIK4); settings: read-out: DAPK2, % of Control
Chain of DAPK2 (Q9UIK4 whole entry): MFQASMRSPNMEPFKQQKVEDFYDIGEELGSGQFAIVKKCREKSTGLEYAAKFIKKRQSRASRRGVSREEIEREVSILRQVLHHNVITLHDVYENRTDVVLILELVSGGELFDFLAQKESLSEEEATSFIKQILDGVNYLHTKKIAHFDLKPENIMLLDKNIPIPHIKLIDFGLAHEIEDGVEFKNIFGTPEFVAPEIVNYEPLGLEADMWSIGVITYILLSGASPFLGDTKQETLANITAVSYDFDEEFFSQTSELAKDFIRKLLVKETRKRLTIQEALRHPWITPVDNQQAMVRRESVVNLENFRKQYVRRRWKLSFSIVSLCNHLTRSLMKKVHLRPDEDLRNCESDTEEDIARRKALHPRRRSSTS

HIPK2 = HIPK2 (Homo sapiens, UniProt Q9H2X6); settings: read-out: HIPK2, % of Control
IGF-1R = IGF-1R (Homo sapiens, UniProt P08069); settings: read-out: IGF-1R, % of Control
IKKβ = biological target: T1, IKKβ (Homo sapiens, UniProt O14920); settings: read-out: IKKβ, % of Control
T1 sequence (O14920 1-756): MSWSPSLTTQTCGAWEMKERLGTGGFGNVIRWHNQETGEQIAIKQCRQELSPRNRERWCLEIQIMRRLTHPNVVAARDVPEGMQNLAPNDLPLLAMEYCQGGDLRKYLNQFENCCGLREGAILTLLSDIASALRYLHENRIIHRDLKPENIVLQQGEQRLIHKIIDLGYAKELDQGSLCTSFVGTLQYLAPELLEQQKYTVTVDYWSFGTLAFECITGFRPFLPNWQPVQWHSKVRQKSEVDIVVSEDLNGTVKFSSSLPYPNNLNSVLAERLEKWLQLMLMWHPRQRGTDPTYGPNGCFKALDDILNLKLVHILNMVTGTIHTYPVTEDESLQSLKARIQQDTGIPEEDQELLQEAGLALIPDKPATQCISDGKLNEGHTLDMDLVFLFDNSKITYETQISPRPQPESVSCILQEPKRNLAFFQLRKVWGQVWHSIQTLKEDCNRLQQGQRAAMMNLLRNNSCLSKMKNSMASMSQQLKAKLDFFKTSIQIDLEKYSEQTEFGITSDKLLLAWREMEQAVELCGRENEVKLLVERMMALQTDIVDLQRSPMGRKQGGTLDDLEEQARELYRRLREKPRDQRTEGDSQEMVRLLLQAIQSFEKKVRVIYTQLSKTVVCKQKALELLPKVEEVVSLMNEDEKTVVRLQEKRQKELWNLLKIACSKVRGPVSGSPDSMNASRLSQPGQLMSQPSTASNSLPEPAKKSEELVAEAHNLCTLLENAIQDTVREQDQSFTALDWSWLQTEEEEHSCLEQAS

IR = IR (Homo sapiens, UniProt P06213); settings: read-out: IR, % of Control
MAPKAP-K3 = MAPKAP-K3 (Homo sapiens, UniProt Q16644); settings: read-out: MAPKAP-K3, % of Control
MSK1 = MSK1 (Homo sapiens, UniProt O75582); settings: read-out: MSK1, % of Control
Chain of MSK1 (O75582 whole entry): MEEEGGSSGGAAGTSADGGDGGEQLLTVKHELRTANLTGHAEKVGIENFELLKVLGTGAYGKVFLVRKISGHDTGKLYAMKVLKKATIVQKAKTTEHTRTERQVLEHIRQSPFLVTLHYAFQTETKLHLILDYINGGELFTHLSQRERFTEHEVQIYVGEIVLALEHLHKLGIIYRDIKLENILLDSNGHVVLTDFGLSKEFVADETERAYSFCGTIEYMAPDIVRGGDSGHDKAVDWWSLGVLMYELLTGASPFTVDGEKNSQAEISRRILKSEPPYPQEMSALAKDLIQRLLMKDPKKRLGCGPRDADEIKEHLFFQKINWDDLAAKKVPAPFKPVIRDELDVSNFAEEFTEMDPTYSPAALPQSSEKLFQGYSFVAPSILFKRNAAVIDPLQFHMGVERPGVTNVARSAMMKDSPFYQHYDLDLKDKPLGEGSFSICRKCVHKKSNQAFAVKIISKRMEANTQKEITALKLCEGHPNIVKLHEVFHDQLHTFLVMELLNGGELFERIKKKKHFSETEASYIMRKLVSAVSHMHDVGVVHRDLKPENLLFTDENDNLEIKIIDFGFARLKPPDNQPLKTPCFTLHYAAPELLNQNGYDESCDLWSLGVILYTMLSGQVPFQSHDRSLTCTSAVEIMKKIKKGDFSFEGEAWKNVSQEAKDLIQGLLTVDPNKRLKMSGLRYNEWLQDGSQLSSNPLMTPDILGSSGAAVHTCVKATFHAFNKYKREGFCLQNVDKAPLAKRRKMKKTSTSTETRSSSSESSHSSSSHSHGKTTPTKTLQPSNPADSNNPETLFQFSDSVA

MSK2 = MSK2 (Homo sapiens, UniProt O75676); settings: read-out: MSK2, % of Control
Chain of MSK2 (O75676 whole entry): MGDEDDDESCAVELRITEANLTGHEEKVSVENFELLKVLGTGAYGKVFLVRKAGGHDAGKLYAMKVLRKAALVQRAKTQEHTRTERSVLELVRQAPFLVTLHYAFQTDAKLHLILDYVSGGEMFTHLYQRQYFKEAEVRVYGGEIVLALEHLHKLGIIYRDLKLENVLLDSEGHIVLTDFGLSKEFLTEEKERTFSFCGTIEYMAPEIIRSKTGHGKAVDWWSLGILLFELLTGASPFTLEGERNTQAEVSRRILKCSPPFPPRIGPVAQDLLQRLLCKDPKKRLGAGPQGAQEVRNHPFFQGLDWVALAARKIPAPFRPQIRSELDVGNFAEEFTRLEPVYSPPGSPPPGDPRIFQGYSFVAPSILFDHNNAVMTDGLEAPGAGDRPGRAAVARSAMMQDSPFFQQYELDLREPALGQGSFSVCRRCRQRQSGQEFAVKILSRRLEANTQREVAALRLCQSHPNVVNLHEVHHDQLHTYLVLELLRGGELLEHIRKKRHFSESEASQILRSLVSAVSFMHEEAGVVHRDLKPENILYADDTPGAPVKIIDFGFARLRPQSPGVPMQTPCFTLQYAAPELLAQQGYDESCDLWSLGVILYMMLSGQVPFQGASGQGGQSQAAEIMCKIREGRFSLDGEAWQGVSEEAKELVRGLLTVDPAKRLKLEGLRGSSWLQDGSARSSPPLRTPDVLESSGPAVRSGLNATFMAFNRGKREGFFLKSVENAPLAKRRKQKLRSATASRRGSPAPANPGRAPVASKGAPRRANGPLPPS

PAK6 = PAK6 (Homo sapiens, UniProt Q9NQU5); settings: read-out: PAK6, % of Control
Pim-2 = Pim-2 (Homo sapiens, UniProt Q9P1W9); settings: read-out: Pim-2, % of Control
Chain of Pim-2 (Q9P1W9 whole entry): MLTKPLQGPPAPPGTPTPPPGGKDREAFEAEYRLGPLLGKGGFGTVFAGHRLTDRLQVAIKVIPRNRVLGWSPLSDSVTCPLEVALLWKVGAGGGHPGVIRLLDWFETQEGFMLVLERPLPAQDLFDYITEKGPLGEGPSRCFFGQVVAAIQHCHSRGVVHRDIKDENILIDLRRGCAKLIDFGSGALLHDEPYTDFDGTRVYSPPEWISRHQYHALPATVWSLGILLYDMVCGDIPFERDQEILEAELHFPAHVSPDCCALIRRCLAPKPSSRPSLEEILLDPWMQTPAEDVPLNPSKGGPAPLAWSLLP

PRAK = PRAK (Homo sapiens, UniProt Q8IW41); settings: read-out: PRAK, % of Control
Ron = Ron (Homo sapiens, UniProt Q04912); settings: read-out: Ron, % of Control
Chain of Ron (Q04912 25-1400): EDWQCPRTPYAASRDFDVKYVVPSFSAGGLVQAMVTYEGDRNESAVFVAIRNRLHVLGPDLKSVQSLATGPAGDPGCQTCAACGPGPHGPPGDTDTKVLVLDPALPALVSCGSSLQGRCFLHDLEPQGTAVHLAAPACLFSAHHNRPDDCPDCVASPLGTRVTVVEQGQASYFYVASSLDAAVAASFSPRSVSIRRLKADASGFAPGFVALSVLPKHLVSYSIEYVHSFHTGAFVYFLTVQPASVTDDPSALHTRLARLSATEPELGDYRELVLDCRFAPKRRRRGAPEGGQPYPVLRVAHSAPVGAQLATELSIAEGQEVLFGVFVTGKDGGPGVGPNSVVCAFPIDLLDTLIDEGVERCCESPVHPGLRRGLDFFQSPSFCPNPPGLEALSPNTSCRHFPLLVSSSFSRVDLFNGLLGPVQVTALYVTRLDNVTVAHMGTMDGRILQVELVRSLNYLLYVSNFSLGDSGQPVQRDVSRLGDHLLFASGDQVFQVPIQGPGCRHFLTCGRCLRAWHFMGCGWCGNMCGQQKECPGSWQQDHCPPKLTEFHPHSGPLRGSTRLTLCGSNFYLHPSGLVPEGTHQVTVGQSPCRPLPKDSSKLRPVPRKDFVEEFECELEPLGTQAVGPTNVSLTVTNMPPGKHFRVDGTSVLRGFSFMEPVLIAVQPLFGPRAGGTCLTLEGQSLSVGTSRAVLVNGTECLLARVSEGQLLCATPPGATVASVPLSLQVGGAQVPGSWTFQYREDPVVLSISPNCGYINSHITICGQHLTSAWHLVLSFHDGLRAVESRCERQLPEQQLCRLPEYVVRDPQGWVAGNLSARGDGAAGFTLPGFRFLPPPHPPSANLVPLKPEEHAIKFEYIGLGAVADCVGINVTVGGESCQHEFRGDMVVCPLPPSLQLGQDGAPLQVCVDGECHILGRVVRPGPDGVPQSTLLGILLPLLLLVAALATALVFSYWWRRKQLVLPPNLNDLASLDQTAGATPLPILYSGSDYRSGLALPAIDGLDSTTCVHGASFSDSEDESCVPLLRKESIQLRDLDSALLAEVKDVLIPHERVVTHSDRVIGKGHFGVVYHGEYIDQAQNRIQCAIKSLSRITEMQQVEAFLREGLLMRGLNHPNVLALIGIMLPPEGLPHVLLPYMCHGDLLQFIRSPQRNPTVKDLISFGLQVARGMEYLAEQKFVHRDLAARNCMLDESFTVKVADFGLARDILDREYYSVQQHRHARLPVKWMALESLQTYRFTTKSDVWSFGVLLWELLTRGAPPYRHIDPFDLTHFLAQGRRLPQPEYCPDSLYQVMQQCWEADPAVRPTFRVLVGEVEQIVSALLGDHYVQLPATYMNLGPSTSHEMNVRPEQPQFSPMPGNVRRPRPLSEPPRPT

Syk = Syk (Homo sapiens, UniProt P43405); settings: read-out: Syk, % of Control
PAK5 = PAK5 (Homo sapiens, UniProt Q9P286); settings: read-out: PAK5, % of Control
Chain of PAK5 (Q9P286 whole entry): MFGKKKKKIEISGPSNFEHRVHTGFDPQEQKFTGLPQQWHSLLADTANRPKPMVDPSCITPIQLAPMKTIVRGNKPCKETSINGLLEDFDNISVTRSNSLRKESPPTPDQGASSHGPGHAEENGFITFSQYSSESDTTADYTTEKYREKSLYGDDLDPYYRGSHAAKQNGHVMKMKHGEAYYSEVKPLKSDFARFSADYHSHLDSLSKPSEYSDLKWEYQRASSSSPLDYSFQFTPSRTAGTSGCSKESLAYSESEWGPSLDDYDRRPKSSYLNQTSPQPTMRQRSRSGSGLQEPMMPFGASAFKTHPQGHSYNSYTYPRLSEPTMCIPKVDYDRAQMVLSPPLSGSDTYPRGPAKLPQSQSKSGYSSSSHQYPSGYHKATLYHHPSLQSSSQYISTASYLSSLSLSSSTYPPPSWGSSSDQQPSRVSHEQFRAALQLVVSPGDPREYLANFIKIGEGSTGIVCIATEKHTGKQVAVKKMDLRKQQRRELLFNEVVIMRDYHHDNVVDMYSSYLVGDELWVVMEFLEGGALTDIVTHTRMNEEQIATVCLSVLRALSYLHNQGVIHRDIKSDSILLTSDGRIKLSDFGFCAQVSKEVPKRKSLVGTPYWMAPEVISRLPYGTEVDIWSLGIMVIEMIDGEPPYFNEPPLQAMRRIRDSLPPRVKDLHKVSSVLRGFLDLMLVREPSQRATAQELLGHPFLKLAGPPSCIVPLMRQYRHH

CK1γ3 = CK1γ3 (Homo sapiens, UniProt Q9Y6M4); settings: read-out: CK1γ3, % of Control
Chain of CK1γ3 (Q9Y6M4 whole entry): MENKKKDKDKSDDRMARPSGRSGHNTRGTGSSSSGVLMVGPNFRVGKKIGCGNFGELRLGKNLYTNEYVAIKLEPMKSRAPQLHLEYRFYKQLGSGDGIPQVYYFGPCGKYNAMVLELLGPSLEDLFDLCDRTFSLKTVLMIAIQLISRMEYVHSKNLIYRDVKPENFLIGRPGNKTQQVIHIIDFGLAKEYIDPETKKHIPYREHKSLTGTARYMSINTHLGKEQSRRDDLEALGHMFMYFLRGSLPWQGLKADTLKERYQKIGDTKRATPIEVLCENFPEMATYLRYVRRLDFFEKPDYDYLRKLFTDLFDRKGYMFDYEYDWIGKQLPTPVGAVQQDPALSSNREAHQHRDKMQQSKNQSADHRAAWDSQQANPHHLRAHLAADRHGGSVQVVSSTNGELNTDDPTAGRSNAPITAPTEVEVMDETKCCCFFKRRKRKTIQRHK

Structure (SMILES): COc1cc(O)c(CC=C(C)C)c(O)c1C(=O)/C=C/c1ccc(O)cc1 [Xanthohumol, xanthohumol]
- remaining activity at 1 µg/mL (Abl(T315I); 1 ug/ml): 126%
- remaining activity at 5 µg/mL (Abl(T315I); 5 ug/ml): 115%
- remaining activity at 25 µg/mL (Abl(T315I); 25 ug/ml): 16%
- remaining activity at 5 µg/mL (DAPK1; 5 ug/ml): 85%
- remaining activity at 50 µg/mL (DAPK1; 50 ug/ml): 20%
- remaining activity at 1 µg/mL (DAPK2; 1 ug/ml): 105%
- remaining activity at 5 µg/mL (DAPK2; 5 ug/ml): 88%
- remaining activity at 25 µg/mL (DAPK2; 25 ug/ml): 45%
- remaining activity at 50 µg/mL (DAPK2; 50 ug/ml): 26%
- remaining activity at 1 µg/mL (HIPK2; 1 ug/ml): 110%
- remaining activity at 5 µg/mL (HIPK2; 5 ug/ml): 98%
- remaining activity at 25 µg/mL (IGF-1R; 25 ug/ml): 129%
- remaining activity at 50 µg/mL (IGF-1R; 50 ug/ml): 139%
- remaining activity at 1 µg/mL (IKKβ; 1 ug/ml): 145%
- remaining activity at 5 µg/mL (IKKβ; 5 ug/ml): 118%
- remaining activity at 25 µg/mL (IKKβ; 25 ug/ml): 61%
- remaining activity at 50 µg/mL (IKKβ; 50 ug/ml): 44%
- remaining activity at 1 µg/mL (IR; 1 ug/ml): 120%
- remaining activity at 5 µg/mL (IR; 5 ug/ml): 108%
- remaining activity at 25 µg/mL (MAPKAP-K3; 25 ug/ml): 17%
- remaining activity at 50 µg/mL (MAPKAP-K3; 50 ug/ml): 7%
- remaining activity at 1 µg/mL (MSK1; 1 ug/ml): 114%
- remaining activity at 5 µg/mL (MSK1; 5 ug/ml): 92%
- remaining activity at 25 µg/mL (MSK1; 25 ug/ml): 31%
- remaining activity at 1 µg/mL (MSK2; 1 ug/ml): 126%
- remaining activity at 5 µg/mL (MSK2; 5 ug/ml): 61%
- remaining activity at 25 µg/mL (MSK2; 25 ug/ml): 8%
- remaining activity at 50 µg/mL (MSK2; 50 ug/ml): 19%
- remaining activity at 1 µg/mL (PAK6; 1 ug/ml): 105%
- remaining activity at 5 µg/mL (PAK6; 5 ug/ml): 94%
- remaining activity at 25 µg/mL (PAK6; 25 ug/ml): 14%
- remaining activity at 1 µg/mL (Pim-2; 1 ug/ml): 104%
- remaining activity at 5 µg/mL (Pim-2; 5 ug/ml): 48%
- remaining activity at 25 µg/mL (Pim-2; 25 ug/ml): 14%
- remaining activity at 50 µg/mL (Pim-2; 50 ug/ml): 6%
- remaining activity at 1 µg/mL (PRAK; 1 ug/ml): 101%
- remaining activity at 5 µg/mL (PRAK; 5 ug/ml): 53%
- remaining activity at 1 µg/mL (Ron; 1 ug/ml): 135%
- remaining activity at 5 µg/mL (Ron; 5 ug/ml): 127%
- remaining activity at 25 µg/mL (Ron; 25 ug/ml): 60%
- remaining activity at 50 µg/mL (Ron; 50 ug/ml): 69%
- remaining activity at 1 µg/mL (Syk; 1 ug/ml): 95%
- remaining activity at 5 µg/mL (Syk; 5 ug/ml): 60%
- remaining activity at 25 µg/mL (Syk; 25 ug/ml): 32%
- remaining activity at 50 µg/mL (Syk; 50 ug/ml): 17%
- remaining activity at 1 µg/mL (PAK5; 1 ug/ml): 106%
- remaining activity at 5 µg/mL (PAK5; 5 ug/ml): 99%
- remaining activity at 25 µg/mL (PAK5; 25 ug/ml): 42%
- remaining activity at 50 µg/mL (PAK5; 50 ug/ml): 5%
- remaining activity at 1 µg/mL (CK1γ3; 1 ug/ml): 98%
- remaining activity at 5 µg/mL (CK1γ3; 5 ug/ml): 51%
- remaining activity at 25 µg/mL (CK1γ3; 25 ug/ml): 22%
- remaining activity at 50 µg/mL (CK1γ3; 50 ug/ml): 15%
